Experimental data: PMC5423977, “Safety, pharmacokinetics, and pharmacodynamics of BMS-986142, a novel reversible BTK inhibitor, in healthy participants” (European Journal of Clinical Pharmacology, 2017)
Several values for one entry are separate records, joined by “and”; a condition that tells them apart may be missing. Equal values may be shown once.

Tests used:
[1] = system: collagen-induced arthritis model; conditions: combined with standard of care agents (e.g., MTX); cited from earlier work
[2] = system: CD69 expression on B cells; assay: Ex vivo anti-IgD-dextran induced CD69 expression on B cells in whole blood; assay type: cell-based, human
Experimental: To assess the functional effect of BMS-986142 on a relevant pathway in the targeted cells, whole blood was stimulated ex vivo with anti-IgD-dextran to activate signal transduction through the B cell antigen receptor. B cells, identified by CD20, were assessed for expression of CD69. Blood was incubated without addition of anti-IgD-dextran to serve as a negative control. Samples were incubated for 24 h at 37 °C, and then fixed and stained for CD20 and CD69. CD69 expression was quantified by standardized flow cytometry. Fluorescence intensity was measured and reported in units of mean equivalents of soluble fluorescein (MESF). Background CD69 level was measured from samples without the addition of anti-IgD-dextran and was subtracted from the stimulated value. The anti-IgD specific CD69 induction was used for analysis. The result for each sample was expressed as a percentage inhibition relative to the pre-dose sample.
CD69 inhibition by BMS-986142 was tabulated by treatment and time, and corresponding changes from baseline were calculated and summarized. The inhibition of B cell receptor-mediated CD69 expression by BMS-986142 was descriptively summarized by treatment and study days. An exposure-response analysis was applied to characterize the relationship between BMS-986142 concentration and CD69 inhibition using a Bayesian Emax model. […]

[3] = Safety (adverse events), Study 2 MTX-DDI in healthy male participants
Experimental: This portion of the study was designed to assess the effect of BMS-986142 on the PK of MTX since MTX is used as a background therapy in RA patients and all patients will receive MTX when the phase 2 study of BMS-986142 is conducted. Eligible participants were confined to the clinical facility for the duration of treatment (15 days). Healthy participants were administered a single oral dose of 7.5 mg MTX on day 1. On day 2, participants received leucovorin (a single oral dose of 15 mg) as a preventive measure for MTX toxicity. After a washout period (days 2–5), BMS-986142 was administered on days 6–10 in 350-mg QD doses. A concomitant dose of MTX (7.5 mg) was administered on day 8, followed by leucovorin (15 mg) on day 9 (Online Resource 2). BMS-986142 was administered with 240 mL of water, and a minimum amount of additional water was permitted to allow dosing of all medications. Only healthy male participants (ages ≥18 to ≤50 years) were eligible for the MTX-DDI assessment in study 2. Other key inclusion and exclusion criteria were identical to those in study 1.
Participants were monitored for adverse events (AEs) throughout the study. Clinical laboratory tests, vital sign measurements, 12-lead ECGs, and physical examinations were performed at selected times throughout the dosing interval. Safety data was recorded in the participants’ medical records, and assessments were performed for emergent AEs or serious AEs (SAEs). For all AEs, causal relationship to the study drug was determined by an investigator.

[4] = Effect of BMS-986142 on single-dose plasma PK of MTX (DDI); assay type: in vivo, human; conditions: BMS-986142 350 mg QD, MTX 7.5 mg single dose
Experimental: Blood samples for the measurement of BMS-986142 were collected up to 168 h after dosing of BMS-986142 on day 1 for participants in SAD. In MAD, blood samples were collected up to 24 h on day 1 and up to 120 h on day 14 (the last day of treatment). Blood samples for the measurement of MTX were collected up to 48 h after dosing of MTX on days 1 and 8.
Plasma samples were analyzed for BMS-986142 levels with a validated method using liquid chromatography tandem mass spectrometry (LC-MS/MS) detection. The analyte was extracted from 50 μL of plasma using a liquid–liquid extraction method. Methyl tert-butyl ether was used as the extraction solvent. The lower limit of quantification (LLOQ) was 1.00 ng/mL in plasma. Plasma samples were analyzed for methotrexate levels using LC-MS/MS detection. Analytes were isolated from 50 μL plasma through solid phase extraction using Waters Oasis MAX, 10-mg, 96-well SPE plates. The final extract was analyzed using LC-MS/MS detection. LLOQ was 1.00 ng/mL in plasma. Detailed methodology quantitating the concentration level of BMS-986142 and MTX is provided in Online Resource 10.
Individual subject pharmacokinetic parameters for BMS-986142 and MTX were derived by a non-compartmental method using validated PK software (WinNonLin version 6.3; Pharsight Corporation, Mountain View, CA, USA). The following PK parameters for BMS-986142 and MTX were derived from plasma concentration versus time data: maximum observed plasma concentration (Cmax); minimum observed plasma concentration (Cmin); time to maximum observed plasma concentration (Tmax); area under the plasma concentration-time curve from time zero to the time of the last quantifiable concentration (AUC(0-T)), from time zero extrapolated to infinite time (AUC(inf)), and in one dosing interval (AUC(TAU)); terminal plasma half-life (T1/2); and AUC accumulation index (AI_AUC). AI_AUC was calculated to divide AUC(TAU) on day 14 by AUC(TAU) on day 1.
Statistical analyses were conducted to assess the effect of coadministration of BMS-986142 on the PK of MTX. For all treatment comparisons, a linear mixed-effect model was fitted to the log-transformed PK parameters Cmax, AUC(0-T), and AUC(inf). Point estimates and 90% CIs for differences on the log-scale were exponentiated to obtain estimates for geometric mean ratios (GMRs) and respective 90% CIs on the original scale. Sample size determination is based on consideration of the precision of the estimate of the GMRs of AUCs of MTX with and without BMS-986142. With 9 evaluable subjects, there will be an 80% probability that the 90% CI of AUC(INF) GMR will be within 89.9 to 111.2% of the point estimate. These precision estimates are based on an assumption that Cmax and AUC(INF) of MTX are log-normally distributed with intrasubject CV of 14.67 and 10.38%, respectively, as calculated from Namour et al..

[5] = BMS-986142 350 mg QD (Days 6 and 7), n = 12
[6] = BMS-986142 350 mg QD (Days 8 to 10) + MTX 7.5 mg (Day 8) + leucovorin 15 mg (Day 9), n = 12

For Cc1c(-c2c(F)cc(C(N)=O)c3[nH]c4c(c23)CC[C@H](C(C)(C)O)C4)cccc1-n1c(=O)c2cccc(F)c2n(C)c1=O [BMS-986142, 6-fluoro-5-(R)-(3-(S)-(8-fluoro-1-methyl-2,4-dioxo-1,2-dihydroquinazolin-3(4H)-yl)-2-methylphenyl)-2-(S)-(2-hydroxypropan-2-yl)-2,3,4,9-tetrahydro-1H-carbazole-8-carboxamide], the “Efficacy against disease endpoints in combination” value [1] is given as “Added benefit against disease endpoints”, the IC50 ([2]; Homo sapiens, B-cell, plasma concentration, Bayesian Emax model, SAD and MAD data, read-out: IC50, concentration to inhibit 50% of CD69 expression) is given as 145 nM and 0.083 µg/mL and the “Mean maximal inhibition of CD69 expression” value ([2]; dose levels greater than 100 mg) is given as about 100%. The “AE SOC: Gastrointestinal Disorders” value [3, 5] was 0 n (%), the “AE SOC: General disorders and administration site conditions” value [3, 5] was 0 n (%) and the “AE SOC: Infections and infestations” value [3, 5] was 0 n (%). The “AE SOC: Injury, poisoning and procedural complications” value [3, 5] was 0 n (%), the “AE SOC: Nervous system disorders” value [3, 5] was 1 (8.3) n (%) and the “AE SOC: Psychiatric disorders” value [3, 5] was 1 (8.3) n (%). For the same compound, the “AE: Anxiety” value [3, 5] was 0 n (%), the “AE: Arthropod Bite” value [3, 5] was 0 n (%) and the “AE: Asthenia” value [3, 5] was 0 n (%). For the same compound, the “AE: Dizziness” value [3, 5] was 0 n (%), the “AE: Fatigue” value [3, 5] was 0 n (%) and the “AE: Headache” value [3, 5] was 1 (8.3) n (%). The “AE: Nausea” value [3, 5] was 0 n (%), the “AE: Sleep Disorder” value [3, 5] was 1 (8.3) n (%) and the “AE: Tremor” value [3, 5] was 0 n (%). The “AE: Viral Infection” value [3, 5] was 0 n (%), the “Total participants with an event” value [3, 5] was 2 (16.7) n (%) and the “AE SOC: Gastrointestinal Disorders” value [3, 6] was 2 (16.7) n (%). For the same compound, the “AE SOC: General disorders and administration site conditions” value [3, 6] was 1 (8.3) n (%), the “AE SOC: Infections and infestations” value [3, 6] was 1 (8.3) n (%) and the “AE SOC: Injury, poisoning and procedural complications” value [3, 6] was 1 (8.3) n (%). The “AE SOC: Nervous system disorders” value [3, 6] was 2 (16.7) n (%), the “AE SOC: Psychiatric disorders” value [3, 6] was 1 (8.3) n (%) and the “AE: Anxiety” value [3, 6] was 1 (8.3) n (%). For the same compound, the “AE: Arthropod Bite” value [3, 6] was 1 (8.3) n (%), the “AE: Asthenia” value [3, 6] was 0 n (%) and the “AE: Dizziness” value [3, 6] was 2 (16.7) n (%). The “AE: Fatigue” value [3, 6] was 1 (8.3) n (%), the “AE: Headache” value [3, 6] was 1 (8.3) n (%) and the “AE: Nausea” value [3, 6] was 2 (16.7) n (%). For the same compound, the “AE: Sleep Disorder” value [3, 6] was 0 n (%), the “AE: Tremor” value [3, 6] was 0 n (%) and the “AE: Viral Infection” value [3, 6] was 1 (8.3) n (%). For the same compound, the “Total participants with an event” value [3, 6] was 4 (33.3) n (%), the “Number of AEs reported” value ([3]; Study 2, BMS-986142 on days 6 and 7) was 2 AEs and the “Number of AEs reported” value ([3]; Study 2, concomitant MTX and BMS-986142 (days 8–10)) was 9 AEs. The “AE: Cough” value ([3]; Study 2, n = 12) was 0 n (%), the “AE: Diarrhea” value ([3]; Study 2, n = 12) was 0 n (%) and the “AE: Dizziness” value ([3]; Study 2, n = 12) was 2 (16.7) n (%). For the same compound, the “AE: Headache/tension headache” value ([3]; Study 2, n = 12) was 1 (8.3) n (%), the “AE: Nausea” value ([3]; Study 2, n = 12) was 2 (16.7) n (%) and the “AE: Thermal burns” value ([3]; Study 2, n = 12) was 0 n (%). The “AE: Upper respiratory tract infection” value ([3]; Study 2, n = 12) was 0 n (%), the “Subjects with AEs” value ([3]; Study 2, n = 12) was 4 (33.3) n (%) and the “Effect on the pharmacokinetics of MTX” value [4] was “did not affect the pharmacokinetics of MTX”.
